Assays:
[1] = Stability titration (pEu) by competitive batch titration using DTPA; assay type: physicochemical
Procedure: (§1) Stability Titrations. The general procedure used to determine the pEu values of ligands was adapted from an already described study using Gd and are similar to that already reported for other complexes. Different volumes of a standardized DTPA stock solution were added to solutions of constant ligand, metal, and electrolyte concentrations. Concentrations of complexed ligand in each solution were determined by subtracting the remaining luminescence intensity after addition of DTPA to the initial luminescence intensity at identical pH and those concentrations were used as references for the analysis. Stability of compounds towards mM concentrations of EDTA and divalent cations will be assessed by incubation of the proposed molecules at nM concentration at room temperature in aqueous solutions of test ions. Time Resolved Fluorescent signal will be assessed at the outset of experiment and monitored over a minimum of 24 hours to determine signal change.

[2] = Stability testing in concentrated solutions of divalent cations and EDTA; assay type: physicochemical; conditions: over 24 hrs
Procedure: as §1
Although these conditions represent concentrations that are in excess of those typically encountered in routine commercial use, they are a benchmark used in the high-throughput screening industry to evaluate these types of molecules. For comparison, stability testing of the commercialized Lumi4-Tb compound is shown (FIG. 3, top) and represents the stability benchmark for these types of molecules.

[3] = Calculation of Eu luminescence parameters (radiative lifetime, rate constants, efficiencies); assay type: physicochemical
Procedure: In this equation, the ηISC ηET term is termed the sensitization efficiency, ηsens (ηsens=ηISC ηET). All the luminescence parameters τR (the pure radiative luminescence lifetime), kR and knR (the radiative and non-radiative constant rate) can be deduced. These parameters were calculated for five of the octadentate complexes and the model complex that present only one species in solution at pH=7.4 and are reported in Table 6.

[4] = Luminescence lifetimes (TRIS buffer, deuterated water, 77K) and inner sphere water number q
Procedure: Fluorescent decay signals can be acquired using an IBH DataStation Hub photon counting module and data analysis performed using the commercially available DAS 6 decay analysis software package from HORIBA Jobin Yvon IBH. Goodness of fit will be assessed by minimizing the reduced chi squared function, χ2, and a visual inspection of the weighted residuals. Each trace will use at least 10,000 points and the reported lifetime values result from at least three independent measurements.
In addition to the steady state emission spectra, the luminescence quantum yields and luminescence lifetimes of the Eu(III) complexes were also measured in aqueous solution with 0.1 M TRIS buffer pH=7.4 and in deuterated solution to estimate the number of inner sphere water molecule (i.e. q) using the improved Horrock's equations.
Luminescence lifetimes were also determined at 77K, in a solid matrix (Table 5), which have allowed us to determine whether back energy transfer between the donor triplet excited state and the acceptor manifold excited state of the lanthanide is present, or alternately whether quenching via low lying LMCT state occurs.

[5] = UV/visible absorption spectroscopy of Eu(III) complexes in TRIS buffer; assay type: physicochemical
Text: Extinction Coefficient. A series of solutions of varied concentrations will be prepared from the solids based on mass and purity. The absorbance of each of these solutions at both 340 nm and at the appropriate acceptor wavelength will be measured and plotted according to Beer's Law (A=εcL where A is absorbance, ε is the extinction coefficient in M^−1 cm^−1, c is concentration, and L is path length in cm) with the fitted linear regression slope equal to […] on a plot of A as a function of C.
Each of the spectra have absorption maxima around 335-340 nm (FIG. 2). Those bands are composed of two electronic transitions; at higher energy, a purely π-π* transition and, at slightly lower energy (around ca. 320 nm), a π-π* transition with some n-π* character, as evidenced previously from TD-DFT calculations. […] This interaction gives maxima blue-shifting from 341 nm for [Eu(H(2,2)-1,2-HOPO)]^0 to 334 nm for [Eu(H(17O5,2)-1,2-HOPO)]^0 (as low as 332 nm for)[Eu(5LIN^Me-1,2HOPO)2]^0).

[6] = Triplet excited state energy from phosphorescence of Gd complexes at 77K; assay type: physicochemical; conditions: solid matrix (methanol/ethanol 1/4), using the Gd complexes
Procedure: Estimation of the energies of the ligand based triplet excited state were determined using the Gd(III) complexes. Gadolinium was chosen because it is a 4f^7 lanthanide cation having a similar 4f electronic configuration and size as the europium cation (4f^6), but lacking an accessible metal based low energy electronic excited state. At room temperature, only a broad weak emission centered between 380-400 nm can be seen for the Gd(III) complexes. […] At 77K, in solid matrix, an emission band at approx. 500 nm can be seen (FIG. 8). This emission, red-shifted compared to the singlet excited state, can be assigned to phosphorescence from the triplet excited state, lower in energy than the singlet excited state observed at room temperature. Selective time gated phosphorescence spectra (delay 0.1 ms) of the gadolinium complexes at 77K are depicted in FIG. 8.

[7] = Luminescence quantum yield, emission and brightness in aqueous 0.1 M TRIS buffer; assay type: physicochemical
Procedure: Quantum Yield. Quantum yield will be measured using established methods. Fluorescence quantum yield Q are measured in diluted solution with an optical density lower than 0.1 using the following equation Qx/Qr=[Ar(λr)/Ax(λx)][nx^2/nr^2][Dx/Dr] were A is the absorbance at the excitation wavelength (λ), n the refractive index and D the integrated luminescence intensity. Subscripts “r” and “x” stand for reference and sample, respectively. References will be a quinine bisulfate in 1N sulfuric acid in aqueous solution (Qt=0.546)^1 and Ru(bpy)3 2C1 complexes in water solution (Qr=0.028)^2 for all complexes. A plot of integrated emission intensity (i.e. Dr) versus absorbance (i.e. Ar(λr)) yields a linear plot with a slope which can be equated to the reference quantum yield Qr. By analogy, for the unknown sample, a plot of integrated emission intensity (i.e. Dx) versus absorbance (i.e. Ax(λx)) yields a linear plot and Qx can then be evaluated. A minimum of at least two independent measurements will be averaged to derive a reliable value.

## O=C(NCCN(CCNC(=O)c1cccc(=O)n1O)CCOCCOCCOCCN(CCNC(=O)c1cccc(=O)n1O)CCNC(=O)c1cccc(=O)n1O)c1cccc(=O)n1O [Eu(H11-3)]
[1]; competitive batch titration using DTPA in 0.1M TRIS pH = 7.4 and 0.1M KCl
  pEu: 20.4
[1]; in words
  pEu value as compared to DTPA: increased
[2]
  signal change in concentrated solutions of divalent cations and EDTA: significant signal loss
[3]
  sensitization process efficiency: 40.2%
[3]; efficiency of metal centred luminescence
  η^Eu: 0.411
[3]; non-radiative rate constant
  knr: 882 s⁻¹
[3]; pure radiative luminescence lifetime, aqueous TRIS pH = 7.4
  τrad: 1630 μs
[3]; radiative rate constant
  kr: 615 s⁻¹
[3]; sensitization efficiency
  η^sens: 0.402
[4]; aqueous TRIS pH = 7.4
  τ: 668 μs
[4]; deuterated solution, first component
  τ^D: 888 μs
[4]; deuterated water, first component
  τ^D: 888 μs
[4]; first (longer) component
  τ: 668 μs
[4]; inner sphere water molecules, improved Horrock's equations, first species
  q: 0.1
[4]; solid matrix at 77K (methanol/ethanol 1/4), first component
  τ (77K): 765 μs
[5]; TRIS buffer pH = 7.4
  ε: 15,070 M^−1 · cm^−1
  λ^maxabs: 334 nm
[5]; absorption maximum
  λ: 334 nm
[5]; extinction coefficient, in M-1·cm-1
  ε: 15,070
[6]
  T0-0 (triplet excited state energy): 22,120 cm^−1
[7]; 0.1M TRIS buffer pH = 7.4
  øTot: 0.165
[7]; aqueous TRIS pH = 7.4, complexes with only one species
  ϕTot: 0.165
[7]; aqueous medium
  quantum yield in aqueous medium: 17%
[7]; aqueous quantum yield
  ϕTot: 0.165
[7]; at maximum absorption, product of quantum yield and molar absorption coefficient, 0.1 M TRIS pH = 7.4
  Brightness: 2485 M⁻¹ cm⁻¹
[7]; related to inner-sphere coordinated water
  overall quantum yield (in words): comparatively high quantum yields
